# Tests used:
# Format in all cases: biochemical
# cathepsin B = target: T1, cathepsin B (Homo sapiens, UniProt P07858); assay: Cathepsin B inhibitor kinetic characterization, fluorogenic assay with Z-Phe-Arg-AMC; details: for reduction of cathepsin B activity: 64 nM inhibitor; for kinact/KI / Ki / IC50: cathepsin B
# T1 construct: purchased R&D Systems 953-CY-010
# Procedure: Inhibitor kinetic characterization using fluorogenic assays for cathepsin B activity. Kinetic analyses of IC50, K1, kobs, and kinact/K1 values for Z-Arg-Lys-AOMK and Z-Glu-Lys-AOMK inhibition of cathepsin B were conducted by fluorogenic proteolytic assays consisting of 40 μM Z-Phe-Arg-AMC, 40 mM citrate phosphate at pH 7.2 or pH 4.6, 1 mM EDTA, 100 mM NaCl, 5 mM DTT, and 0.01% Tween 20; assays were performed at room temperature (22-27° C.) in quadruplicate. Inhibitor and substrate were combined in the reaction well, and the assay was started upon addition of cathepsin B (0.04 ng/μL). The inhibitor concentration ranged from 5.5 μM to 1.1 nM (1.5-fold serial dilution). A vehicle control assay contained 2% DMSO instead of inhibitor. Enzyme velocity (RFU/sec) was measured during a […] incubation period as relative fluorescent units per sec (RFU/s), calculated using the highest slope recorded for 10 consecutive readings taken at 46 sec intervals (thus, activity is calculated over a total of 460 sec). Prism software was used to analyze enzyme activity data in kinetic studies. IC50 values were calculated (without preincubation of inhibitor and enzyme) as the concentration of inhibitor that reduced cathepsin B activity by 50%.
# For determination of K1 and kinact/K1 kinetic inhibition constants, kobs constants were determined by plots of cathepsin B activity in time courses with different inhibitor concentrations by curve fitting slope data of RFU versus time into Y=Y0*e^(−kobs*^X), where Y0 is the activity for the control with no inhibitor condition, Y is the activity in the presence of inhibitor, X is time. K1 and kinact values were calculated from curve fitting the kobs values into the equation kobs=kinact*[I]/(K1+[I]), where [I] is inhibitor concentration, and K1 is the x-axis inhibitor concentration where y=kinact/2 and kinact is the maximum rate of inactivation at saturating inhibitor concentrations (93, 94). These kinetic analyses are for irreversible inhibitors, Z-Arg-Lys-AOMK and Z-Glu-Lys-AOMK of this study, that utilize Ki values, rather than Ki values used for reversible inhibitors (93).
# cathepsin K = target: T2, cathepsin K (Homo sapiens, UniProt P43235); assay: Specificity of inhibitors: cathepsin K (Z-Phe-Arg-AMC substrate)
# T2 construct: purchased Abcam ab157067
# T2 sequence (P43235 115-329): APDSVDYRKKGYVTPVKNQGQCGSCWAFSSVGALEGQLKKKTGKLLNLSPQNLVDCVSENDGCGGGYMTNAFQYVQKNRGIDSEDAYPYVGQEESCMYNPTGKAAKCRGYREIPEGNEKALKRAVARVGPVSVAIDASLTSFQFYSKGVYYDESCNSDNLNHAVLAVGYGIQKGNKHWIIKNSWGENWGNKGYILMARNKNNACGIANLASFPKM
# Procedure: (§1) Specificity of inhibitors for other cysteine cathepsin proteases. The effects of Z-Arg-Lys-AOMK and Z-Glu-Lys-AOMK on cathepsin V, L, K, S, X, H and C activities were assessed. IC50 values were calculated at pH 4.6 and pH 7.2 conditions, consisting of 40 mM citrate phosphate, 1 mM EDTA, 100 mM NaCl, and 5 mM DTT. The inhibitor concentrations ranged from 16.38 μM to 256 nM with 2-fold serial dilutions. […] Cathepsin V (0.04 ng/μL), cathepsin L (0.03 ng/μL), cathepsin K (0.10 ng/μL), cathepsin S (0.20 ng/uL) were assayed with 40 μM Z-Phe-Arg-AMC. Cathepsin X (0.20 ng/uL), cathepsin C (0.51 ng/uL) and cathepsin H (0.1 ng/μL) were assayed with 40 μM of MCA-Arg-Pro-Pro-Gly-Phe-Ser-Ala-Phe-Lys(Dnp)OH (SEQ ID NO: 2), Gly-Arg-AMC, and Arg-AMC, respectively. Activation of pro-cathepsin H to cathepsin H was conducted by incubation of cathepsin H (4.4 ng/μL) with cathepsin L (1.1 ng/μL) at RT for 2 hrs in activation buffer (20 mM citrate phosphate pH 6.0, 100 mM NaCl, and 5 mM DTT). Cathepsin C (13.78 ng/μL) was activated by incubation with cathepsin L (3.4 ng/μL) at RT for one hr in activation buffer (20 mM citrate phosphate, pH 6.0, 100 mM NaCl, 5 mM DTT). […] For all assays containing peptide-AMC substrates the fluorescent microplate reader settings were the same as outlined above for cathepsin B. For the cathepsin X assay, the plate reader was set to excitation 320 nm, emission 400 nm, gain 105, top optics and read height 1 mm. To convert RFU/s to picomol/min, 10 μM to 0.005 μM (2-fold serial dilution) of MCA-Arg-Pro-Pro-Gly-Phe-Ser-Ala-Phe-Lys(Dnp)OH (SEQ ID NO: 2) was fully hydrolyzed with excess cathepsin X and a standard curve was generated using the total fluorescence values calculated at each concentration.
# cathepsin X = cathepsin X (Homo sapiens, UniProt Q9UBR2); assay: Specificity of inhibitors: cathepsin X (MCA peptide substrate)
# Chain of cathepsin X (Q9UBR2 62-303): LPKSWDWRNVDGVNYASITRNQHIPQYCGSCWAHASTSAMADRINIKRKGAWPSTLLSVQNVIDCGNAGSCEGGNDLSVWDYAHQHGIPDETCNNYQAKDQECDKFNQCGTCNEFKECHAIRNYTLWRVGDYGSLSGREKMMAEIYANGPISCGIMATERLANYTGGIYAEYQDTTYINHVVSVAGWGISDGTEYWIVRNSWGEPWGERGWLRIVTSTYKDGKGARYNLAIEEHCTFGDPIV
# Procedure: as §1
compound,measurement,setting,value
Cc1cccc(C)c1C(=O)OCC(=O)C(CCCCN)NC(=O)C(CCCNC(=N)N)NC(=O)OCc1ccccc1 (stereo not drawn) [Z-Arg-Lys-AOMK],reduction of cathepsin B activity,"cathepsin B; pH 4.6, Z-Phe-Arg-AMC substrate",5%
same,reduction of cathepsin B activity,"cathepsin B; pH 7.2, Z-Phe-Arg-AMC substrate",93%
same,kinact/KI,cathepsin B; pH 4.6,1800 M⁻¹ s⁻¹
same,Ki,"cathepsin B; pH 4.6, irreversible inhibitor",15000 nM
same,IC50,"cathepsin B; pH 4.6, without preincubation",1500 nM
same,IC50,cathepsin B; pH 6.8 (data not shown),22 nM
same,kinact/KI,cathepsin B; pH 7.2,110000 M⁻¹ s⁻¹
same,Ki,"cathepsin B; pH 7.2, irreversible inhibitor",130 nM
same,IC50,"cathepsin B; pH 7.2, without preincubation",20 nM
same,IC50,"cathepsin K; cathepsin K, pH 4.6",> 16000 nM
same,IC50,"cathepsin K; cathepsin K, pH 7.2",> 16000 nM
same,inhibition at 16 µM,"cathepsin K; cathepsin K, pH 7.2, 16,000 nM inhibitor",31%
same,inhibition of cathepsin K,"cathepsin K; pH 4.6, inhibitor at 16 μM",no inhibition
same,inhibition of cathepsin K,"cathepsin K; pH 7.2, inhibitor at 16 μM",minimally inhibited
same,IC50,"cathepsin X; cathepsin X, pH 4.6",> 16000 nM
same,inhibition at 16 µM,"cathepsin X; cathepsin X, pH 4.6, 16,000 nM inhibitor",21%
same,inhibition of cathepsin X,"cathepsin X; pH 4.6, inhibitor at 16 μM",minimal inhibition
